Consider 20 molecules from patent publication US8765746B2 (Millennium Pharmaceuticals, Inc., priority 2010, dated 2014).

Assay type in all cases: biochemical
Assay [1] deals with T1, PI3Kgamma (Homo sapiens, UniProt P48736).
T1 construct: His (N); host or cells: SF9 insect cells (baculovirus)
The assay is described as follows: Human PI3K gamma enzyme assay (HTRF, as for PI3K alpha). The note with it: for inhibition at 1.11 µM: read-out: PI3Kgamma % inh; for PI3Kgamma % inh: at 1.11 μM. Put shortly:
(§1)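 N-His p110β/δ co-expressed with untagged p85 in Sf9, p110γ alone. Enzyme 5.25 nM (β), 0.75 nM (δ), 5 nM (γ), with ATP 25 uM and di-C8 PI(4,5)P2 3.5 uM (added-solution levels), pH 7.00, 30 min RT. HTRF read-out: biotin-PIP3, GST-GRP-1 PH domain, Eu anti-GST, streptavidin-XL.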
On the technique in general: TR-FRET usually uses a lanthanide donor and a delayed reading to cut background.

Assay [2] concerns the target T2, PI3Kdelta (Homo sapiens, UniProt O00329).
T2 construct: His (N); host or cells: SF9 insect cells (baculovirus)
Kind of assay: Human PI3K delta enzyme assay (HTRF, as for PI3K alpha). The note with it: for inhibition at 1.11 µM: read-out: PI3Kdelta % inh; for PI3Kdelta % inh: at 1.11 μM. Put shortly: as §1

For assay [3], the target named is T3, PI3Kalpha (Homo sapiens, UniProt P42336).
T3 construct: His (N); host or cells: SF9 insect cells (baculovirus)
The assay is described as follows: Human PI3Kα enzyme assay (HTRF). As to conditions: for inhibition at 1.11 µM: read-out: PI3Kalpha % inh; for PI3Kalpha % inh: at 1.11 μM. Put shortly:
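His-tagged p110α co-expressed with p85 in Sf9 cells was reacted for 30 min at room temperature in pH 7.00 Hepes buffer with 10 mM MgCl2. Addition solutions held 25 uM ATP, 3.5 uM di-C8 PI(4,5)P2 and 0.4875 nM enzyme. The reaction was quenched with EDTA/biotin-PIP3 and detected by HTRF (GST-GRP-1 PH domain, streptavidin-XL, Eu anti-GST) after 1 h.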

In assay [4] the target is T4, PI3Kbeta (Homo sapiens, UniProt P42338).
T4 construct: His (N); host or cells: SF9 insect cells (baculovirus)
T4 sequence (P42338 whole entry): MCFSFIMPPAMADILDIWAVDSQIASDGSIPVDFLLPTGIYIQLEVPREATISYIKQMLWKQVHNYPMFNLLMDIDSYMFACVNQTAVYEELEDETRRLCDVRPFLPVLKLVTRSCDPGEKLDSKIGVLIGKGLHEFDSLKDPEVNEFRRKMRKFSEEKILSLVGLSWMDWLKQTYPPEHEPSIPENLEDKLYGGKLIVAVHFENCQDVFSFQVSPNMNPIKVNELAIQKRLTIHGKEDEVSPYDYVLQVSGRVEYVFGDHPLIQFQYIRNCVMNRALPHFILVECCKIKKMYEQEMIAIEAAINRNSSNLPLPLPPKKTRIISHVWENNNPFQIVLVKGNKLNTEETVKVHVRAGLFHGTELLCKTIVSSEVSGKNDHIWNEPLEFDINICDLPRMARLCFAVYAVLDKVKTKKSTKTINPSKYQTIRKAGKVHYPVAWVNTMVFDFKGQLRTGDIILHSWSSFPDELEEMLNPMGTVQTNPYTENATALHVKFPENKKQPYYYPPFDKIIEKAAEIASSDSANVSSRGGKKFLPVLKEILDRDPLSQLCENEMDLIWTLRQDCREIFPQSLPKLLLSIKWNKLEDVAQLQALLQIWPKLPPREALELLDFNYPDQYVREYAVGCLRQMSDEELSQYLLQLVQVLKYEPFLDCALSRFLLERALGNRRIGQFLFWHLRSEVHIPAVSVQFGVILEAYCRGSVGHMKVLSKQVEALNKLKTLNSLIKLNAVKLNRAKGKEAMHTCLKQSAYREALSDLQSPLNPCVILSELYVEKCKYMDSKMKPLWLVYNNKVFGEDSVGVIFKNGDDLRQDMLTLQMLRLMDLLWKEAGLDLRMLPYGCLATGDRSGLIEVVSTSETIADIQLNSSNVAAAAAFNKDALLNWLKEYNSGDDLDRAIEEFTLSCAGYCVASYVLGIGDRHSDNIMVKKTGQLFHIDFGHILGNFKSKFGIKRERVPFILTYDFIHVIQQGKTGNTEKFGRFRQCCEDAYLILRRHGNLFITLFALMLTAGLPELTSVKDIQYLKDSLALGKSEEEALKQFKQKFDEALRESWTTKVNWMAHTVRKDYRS
T4 sequence (P27986 whole entry partner): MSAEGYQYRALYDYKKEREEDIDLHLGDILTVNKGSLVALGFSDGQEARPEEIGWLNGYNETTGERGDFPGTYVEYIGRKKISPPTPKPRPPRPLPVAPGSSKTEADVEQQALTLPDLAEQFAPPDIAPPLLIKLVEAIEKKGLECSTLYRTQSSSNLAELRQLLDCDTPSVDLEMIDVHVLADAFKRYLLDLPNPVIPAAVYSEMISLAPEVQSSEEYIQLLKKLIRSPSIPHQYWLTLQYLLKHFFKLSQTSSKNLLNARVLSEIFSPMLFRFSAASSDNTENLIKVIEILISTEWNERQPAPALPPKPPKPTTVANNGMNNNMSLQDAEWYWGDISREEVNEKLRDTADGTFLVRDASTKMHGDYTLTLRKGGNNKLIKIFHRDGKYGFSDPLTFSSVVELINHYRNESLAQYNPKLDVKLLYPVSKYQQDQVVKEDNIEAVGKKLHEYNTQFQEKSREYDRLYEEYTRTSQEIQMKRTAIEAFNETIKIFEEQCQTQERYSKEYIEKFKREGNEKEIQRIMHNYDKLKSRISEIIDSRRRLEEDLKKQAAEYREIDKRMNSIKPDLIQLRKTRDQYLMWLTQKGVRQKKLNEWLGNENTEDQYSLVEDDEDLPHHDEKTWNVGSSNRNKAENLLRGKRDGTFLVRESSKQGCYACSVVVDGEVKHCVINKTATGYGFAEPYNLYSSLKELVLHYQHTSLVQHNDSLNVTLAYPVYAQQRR
Kind of assay: Human PI3K beta enzyme assay (HTRF, as for PI3K alpha). As to conditions: for inhibition at 1.11 µM: read-out: PI3Kbeta % inh; for IC50: read-out: IC50 (inhibit PI3Kbeta); for inhibition at 1.11 µM / PI3Kbeta % inh: at 1.11 μM. In outline:
as §1

The target in assay [5] is T5, VPS34 (Homo sapiens, UniProt Q8NEB9).
T5 construct: GST (N); host or cells: SF9 insect cells (baculovirus)
T5 sequence (Q8NEB9 whole entry): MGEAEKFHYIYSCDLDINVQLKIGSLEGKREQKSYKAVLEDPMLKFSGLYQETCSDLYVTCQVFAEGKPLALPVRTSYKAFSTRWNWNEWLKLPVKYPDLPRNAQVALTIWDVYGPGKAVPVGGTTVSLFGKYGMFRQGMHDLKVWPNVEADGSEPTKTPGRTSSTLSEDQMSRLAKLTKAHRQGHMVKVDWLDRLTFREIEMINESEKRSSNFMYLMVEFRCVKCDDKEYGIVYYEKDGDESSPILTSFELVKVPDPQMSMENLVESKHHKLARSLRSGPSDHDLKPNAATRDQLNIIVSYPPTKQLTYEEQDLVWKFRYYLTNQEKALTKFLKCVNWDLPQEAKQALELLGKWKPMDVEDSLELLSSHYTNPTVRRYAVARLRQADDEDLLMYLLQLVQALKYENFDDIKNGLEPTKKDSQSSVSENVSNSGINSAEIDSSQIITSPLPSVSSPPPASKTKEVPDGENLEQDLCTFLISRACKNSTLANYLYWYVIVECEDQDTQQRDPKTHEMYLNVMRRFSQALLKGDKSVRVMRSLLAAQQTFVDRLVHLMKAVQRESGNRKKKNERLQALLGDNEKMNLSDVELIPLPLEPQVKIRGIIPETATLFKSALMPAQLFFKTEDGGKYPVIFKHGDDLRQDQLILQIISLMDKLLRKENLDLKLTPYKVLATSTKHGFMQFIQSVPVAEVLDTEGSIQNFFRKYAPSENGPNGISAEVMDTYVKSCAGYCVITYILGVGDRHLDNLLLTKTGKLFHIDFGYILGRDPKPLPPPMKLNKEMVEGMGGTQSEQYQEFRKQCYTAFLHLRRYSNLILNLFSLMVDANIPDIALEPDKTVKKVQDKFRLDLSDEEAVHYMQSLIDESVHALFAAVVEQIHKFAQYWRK
The assay is described as follows: Human VPS34 enzyme assay (Adapta Universal Kinase Assay). The note with it: for inhibition at 1.11 µM: 1 h, read-out: VPS34 % ihn; for VPS34 % ihn: at 1.11 μM. As for the experimental part: VPS34 (accession number GB:BC033004) is cloned into pDEST20-Thombin as N-terminal GST tagged fusion proteins using the Gateway system (Invitrogen, catalog#11804-013). The sequences are verified before recombinant protein expression using the Baculovirus Expression System with Gateway® Technology.
For expression VPS34 was infected at 1MOI in SF9 cells and harvested 72 hours post infection.
For purification, VPS34 is purified by Glutathione Sepharose 4 Fast Flow (GE Healthcare #17-5132-03) followed by HiTrap Q (GE Healthcare #17-1153-01).
3) VPS34 is assayed using Adapta™ Universal Kinase Assay Kit (Invitrogen).
4) Human VPS34 enzyme assay method
100 mL compounds in DMSO are added to wells of a 384 well microtitre plate (Greiner 780076). At room temperature: 5 ul VPS34 reaction buffer (Invitrogen Assay Buffer Q (diluted 1 in 5 with nanopure water) plus 2 mM DTT and 2 mM MnCl2) containing ATP (20 uM, Promega) and 200 uM PI-PS substrate (Invitrogen PV5122) is added followed immediately by 5 ul VPS34 reaction buffer (as above) containing VPS34 (5 nM, Millennium Protein Sciences Group) and the mixture is incubated with shaking at room temperature for 1 hour. Then 5 ul VPS34 stop-detect mix (as per Invitrogen Adapta Assay kit (PV5009) instructions (contains kinase quench buffer, TR-FRET buffer, Adapta Eu anti-ADP antibody and Alexa Fluor 647 ADP tracer)) is added to quench the reaction. The plates are then incubated for 30 minutes at room temperature with shaking and then read on a BMG PheraStar Plus reader.

T1 sequence (P48736 whole entry): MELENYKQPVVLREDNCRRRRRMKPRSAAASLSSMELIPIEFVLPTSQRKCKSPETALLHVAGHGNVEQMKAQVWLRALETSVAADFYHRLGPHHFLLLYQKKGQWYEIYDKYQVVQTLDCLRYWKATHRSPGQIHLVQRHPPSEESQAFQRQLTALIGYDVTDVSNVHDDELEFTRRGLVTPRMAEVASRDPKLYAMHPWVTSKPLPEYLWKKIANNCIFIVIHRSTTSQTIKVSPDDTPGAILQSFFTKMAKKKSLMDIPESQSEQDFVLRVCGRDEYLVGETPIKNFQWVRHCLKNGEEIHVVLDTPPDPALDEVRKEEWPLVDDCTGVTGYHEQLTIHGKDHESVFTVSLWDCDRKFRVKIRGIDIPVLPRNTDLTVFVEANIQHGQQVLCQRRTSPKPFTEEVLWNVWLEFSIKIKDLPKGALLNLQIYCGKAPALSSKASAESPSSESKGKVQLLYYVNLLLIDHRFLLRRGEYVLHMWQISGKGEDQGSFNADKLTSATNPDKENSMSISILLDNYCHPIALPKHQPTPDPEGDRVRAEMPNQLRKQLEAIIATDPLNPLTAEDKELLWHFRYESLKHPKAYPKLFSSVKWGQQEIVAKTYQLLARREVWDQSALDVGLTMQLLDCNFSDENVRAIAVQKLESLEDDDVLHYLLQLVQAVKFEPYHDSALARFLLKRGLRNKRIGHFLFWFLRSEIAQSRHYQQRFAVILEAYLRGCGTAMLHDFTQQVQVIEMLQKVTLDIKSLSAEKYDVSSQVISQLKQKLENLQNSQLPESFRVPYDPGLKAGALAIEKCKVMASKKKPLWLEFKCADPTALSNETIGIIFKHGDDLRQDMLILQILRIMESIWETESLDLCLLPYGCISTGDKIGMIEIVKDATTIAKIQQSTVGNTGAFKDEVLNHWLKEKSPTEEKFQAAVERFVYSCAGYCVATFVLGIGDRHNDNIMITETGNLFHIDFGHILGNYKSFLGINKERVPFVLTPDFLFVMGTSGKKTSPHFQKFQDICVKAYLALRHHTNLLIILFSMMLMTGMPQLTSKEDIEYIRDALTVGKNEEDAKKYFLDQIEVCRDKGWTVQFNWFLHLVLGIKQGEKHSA
T2 sequence (O00329 whole entry): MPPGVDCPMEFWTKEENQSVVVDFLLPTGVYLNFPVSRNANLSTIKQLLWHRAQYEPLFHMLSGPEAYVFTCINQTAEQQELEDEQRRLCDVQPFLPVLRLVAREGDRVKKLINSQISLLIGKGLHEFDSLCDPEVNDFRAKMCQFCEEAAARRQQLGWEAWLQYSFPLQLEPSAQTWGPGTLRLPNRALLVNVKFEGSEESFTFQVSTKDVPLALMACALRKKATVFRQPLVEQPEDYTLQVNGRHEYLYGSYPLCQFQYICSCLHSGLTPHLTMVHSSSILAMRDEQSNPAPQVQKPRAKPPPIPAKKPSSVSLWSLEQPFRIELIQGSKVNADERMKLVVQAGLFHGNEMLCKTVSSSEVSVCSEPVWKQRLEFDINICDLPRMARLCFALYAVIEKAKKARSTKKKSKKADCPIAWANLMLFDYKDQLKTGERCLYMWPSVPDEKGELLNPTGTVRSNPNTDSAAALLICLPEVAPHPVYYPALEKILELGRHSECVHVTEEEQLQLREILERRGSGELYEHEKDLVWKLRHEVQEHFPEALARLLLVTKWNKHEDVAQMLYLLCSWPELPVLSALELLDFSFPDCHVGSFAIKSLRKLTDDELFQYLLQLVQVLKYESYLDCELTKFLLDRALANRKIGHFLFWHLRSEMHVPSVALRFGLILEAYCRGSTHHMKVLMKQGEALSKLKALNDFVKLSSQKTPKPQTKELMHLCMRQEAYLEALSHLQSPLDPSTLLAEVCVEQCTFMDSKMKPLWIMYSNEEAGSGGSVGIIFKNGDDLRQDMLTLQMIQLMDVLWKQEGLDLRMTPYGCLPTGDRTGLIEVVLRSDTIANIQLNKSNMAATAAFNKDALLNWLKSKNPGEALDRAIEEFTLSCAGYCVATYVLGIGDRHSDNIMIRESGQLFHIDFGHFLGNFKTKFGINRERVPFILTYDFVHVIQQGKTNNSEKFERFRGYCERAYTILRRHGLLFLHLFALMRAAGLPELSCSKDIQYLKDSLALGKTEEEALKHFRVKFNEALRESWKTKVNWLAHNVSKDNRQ
T2 sequence (P27986 whole entry partner): as the sequence (P27986 whole entry partner) above

For orientation: IC50 means the point on the concentration scale where inhibition reaches its midpoint. `Cc1nn2ccccc2c1-c1nc2c(s1)C(=O)CCC2c1ccc(Cl)cc1` (stereo not shown) [Compound 20, 4-(4-chlorophenyl)-2-(2-methylpyrazolo[1,5-a]pyridin-3-yl)-5,6-dihydro-1,3-benzothiazol-7(4H)-one]: the inhibition at 1.11 µM in assay [1] turned out to be 6.6%; in assay [2], 60.4%; in assay [3], 23.6%; in assay [4], 68.2%; in assay [5], 0.9%. Also, the concentration for half-maximal inhibition (IC50) in assay [4] fell in the range of 100 to 1000 nM.
Take `COc1cc(C2CC(=O)c3sc(N4CCOCC4)cc32)ccc1Cl` (stereo not shown) [Compound 158]: the inhibition at 1.11 µM in assay [1] was determined as 65.3%; in assay [2], 100%; in assay [3] it was 12.9%; in assay [4], 108%; in assay [5] it was 5.41%.
As for `CC1(C)CNC(=O)c2sc(-c3ccncc3)cc2C1c1ccc(Cl)cc1` (stereo not shown) [Compound 140, 4-(4-chlorophenyl)-5,5-dimethyl-2-pyridin-4-yl-4,5,6,7-tetrahydro-8H-thieno[2,3-c]azepin-8-one], the inhibition at 1.11 µM in assay [1] was 18.1%; in assay [2], 67.9%; in assay [3], 8.99%; in assay [4], 98.3%; in assay [5] it was 19.5%.
The matching figures for `N#Cc1c(N2CCOCC2)sc2c1C(c1ccc3ccccc3c1)CCNC2=O` (stereo not shown) [Compound 188]: 62.3%, 110%, 102%, 117% and 12.9%.
`O=C1CCC(O)C(c2ccc(Cl)cc2)c2cc(-c3ccncc3)sc21` (stereo not shown) [Compound 210, 4-(4-chlorophenyl)-5-hydroxy-2-pyridin-4-yl-4,5,6,7-tetrahydro-8H-cyclohepta[b]thiophen-8-one]: the values for the inhibition at 1.11 µM in assay [1], in assay [2] and in assay [4] were 5.88%, 34.6% and 73%, respectively. Besides, in assay [3], the PI3Kalpha % inh is 5.17%. For the same molecule, the VPS34 % ihn in assay [5] was −0.70%.
Consider `O=C1CC(c2ccc(Cl)c(Cl)c2)c2cc(N3CCOCC3)sc21` (stereo not shown) [Compound 171], for which the inhibition at 1.11 µM stood at 64.4% in assay [1]; 111% in assay [2]; 48.1% in assay [3]; 106% in assay [4]; 16.8% in assay [5].
On to `CC(=O)Nc1cc(-c2cc3c(s2)C(=O)NCCC3c2ccc(Cl)cc2)ccn1` (stereo not shown) [Compound 1, N-{4-[4-(4-chlorophenyl)-8-oxo-5,6,7,8-tetrahydro-4H-thieno[2,3-c]azepin-2-yl]pyridin-2-yl}acetamide], for which the inhibition at 1.11 µM in assay [1] came out at 63.4%; in assay [2], 103%; in assay [3], 49.8%; in assay [4], 100%; in assay [5] it was 29.3%. Moreover, in assay [4], the IC50 is less than 100 nM.
Turning to `O=C1NCCC(c2ccc3ccccc3c2)c2nc(N3CCOCC3)sc21` (stereo not shown) [Compound 209], the values for the inhibition at 1.11 µM in assay [1], in assay [2] and in assay [5] were 49.5%, 110% and 42.1%, respectively. The same molecule returned a PI3Kalpha % inh in assay [3] of 81.32%. Besides, the PI3Kbeta % inh in assay [4] is listed as 114.75%.
Regarding `O=C1CC(c2ccc(Cl)cc2F)c2cc(N3CCOCC3)sc21` (stereo not shown) [Compound 117], the inhibition at 1.11 µM is 35.5% in assay [1]; 81.2% in assay [2]; 26.6% in assay [3]; 101% in assay [4]; 6.21% in assay [5].
The matching figures for `O=C1NCCC(c2ccc(Cl)cc2)c2nc(N3CCOCC3)sc21` (stereo not shown) [Compound 180, 8-(4-chlorophenyl)-2-(morpholin-4-yl)-5,6,7,8-tetrahydro-4H-[1,3]thiazolo[5,4-c]azepin-4-one]: 28.7%, 87.3%, 13.9%, 97.4% and 55.8%.
Turning to `N#Cc1c(N2CCOCC2)sc2c1C(c1c(F)cc(Cl)cc1F)CCNC2=O` (stereo not shown) [Compound 155], the inhibition at 1.11 µM in assay [1] was 42.6%; in assay [2], 104%; in assay [3] it was 64.7%; in assay [4], 113%; in assay [5], 11.6%.
The matching figures for `CC1(C)C(=O)c2sc(N3CCOCC3)cc2C1(C)c1ccc(Cl)cc1` (racemic) [Compound 118, 4-(4-chlorophenyl)-4,5,5-trimethyl-2-morpholino-4H-cyclopenta[b]thiophen-6(5H)-one]: 5.03%, 54.6%, 19.7%, 63% and 9.51%.
For `O=C1NCCC(c2ccc(Cl)cc2)c2cc(-c3ccncc3)sc21` (single isomer, unassigned) [Compound 25, 4-(4-chlorophenyl)-2-pyridin-4-yl-4,5,6,7-tetrahydro-8H-thieno[2,3-c]azepin-8-one], the PI3Kgamma % inh in assay [1] worked out at 4.500%. The molecule further returned a PI3Kdelta % inh in assay [2] of 31.200%. The PI3Kalpha % inh in assay [3] stood at 3.700%. In assay [4], the PI3Kbeta % inh came out at 69.800% and the half-maximal inhibitory concentration (IC50) is 100 to 1000 nM. Further, in assay [5], the VPS34 % ihn is on record as 10.900%.
`O=C1NCCC(c2ccc(Cl)c(Cl)c2)c2nc(N3CCOCC3)sc21` (stereo not shown) [Compound 173]: the inhibition at 1.11 µM was 41.5% in assay [1]; 110% in assay [2]; 24.1% in assay [3]; 103% in assay [4]; 41.8% in assay [5].
For `O=C1CCC(O)C(c2ccc(Cl)cc2)c2cc(-c3ccncc3)sc21` (stereo not shown) [Compound 129], the PI3Kgamma % inh in assay [1] came to 3.89%. Further, the PI3Kdelta % inh in assay [2] was found to be 26.46%. Further, the PI3Kalpha % inh in assay [3] was 2.32%. In assay [4], this molecule showed a PI3Kbeta % inh of 59.86%. Moreover, the VPS34 % ihn in assay [5] is −2.80%.
`O=C1NCC(c2ccc(Cl)cc2)c2cc(-c3ccncc3)sc21` (stereo not shown) [Compound 30]: the inhibition at 1.11 µM stood at 11.2% in assay [1], 36% in assay [2], 6.3% in assay [3] and 94.9% in assay [4]. In addition, the IC50 in assay [4] was less than 100 nM. Besides, the VPS34 % ihn in assay [5] is −0.200%.
For `CC1(C)NC(=O)c2sc(-c3ccncc3)cc2C1c1ccc(Cl)cc1` (stereo not shown) [Compound 191, 4-(4-chlorophenyl)-5,5-dimethyl-2-(pyridin-4-yl)-5,6-dihydrothieno[2,3-c]pyridin-7(4H)-one], the inhibition at 1.11 µM turned out to be 6.39% in assay [1]; 30.3% in assay [2]; 9.58% in assay [3]; 79.4% in assay [4]; 7.04% in assay [5].
For `O=C1CC(c2ccc3ccccc3n2)c2cc(N3CCOCC3)sc21` (stereo not shown) [Compound 183], the inhibition at 1.11 µM was determined as 20.6% in assay [1]; 60.1% in assay [2]; 26.9% in assay [3]; 90.4% in assay [4]; 9% in assay [5].
Regarding `O=C1CC(c2ccc(Cl)cc2)c2cc(-c3ccncc3)sc21` (stereo not shown) [Compound 23, 4-(4-chlorophenyl)-2-(pyridin-4-yl)-4H-cyclopenta[b]thiophen-6(5H)-one], the inhibition at 1.11 µM in assay [1] is 10.9%; in assay [2], 23%; in assay [3], 3.1%; in assay [4], 92.8%; in assay [5], -2%. In addition, the half-inhibitory concentration (IC50) in assay [4] lay in the range of 100 to 1000 nM.
On to `O=C1NCCC(c2ccc(Cl)cc2)c2cc(-c3ccncc3)sc21` (racemic) [Compound 8, 4-(4-chlorophenyl)-2-pyridin-4-yl-4,5,6,7-tetrahydro-8H-thieno[2,3-c]azepin-8-one], for which the inhibition at 1.11 µM was 21.9% in assay [1]; 59.2% in assay [2]; 2.05% in assay [3]; 102% in assay [4]; 2.55% in assay [5]. Also, in assay [4], the half-maximal inhibitory concentration (IC50) is less than 100 nM.
